Test results taken from patent US12599136B2, “Substituted isophthalic acid diamides and their use as herbicides” (Bayer Aktiengesellschaft, priority 2020, dated 2026).

Key:
Format in all cases: in vivo
Amaranthus retroflexus [1] = test: Post-emergence herbicidal action against AMARE; conditions: visual assessment about 3 weeks after treatment
Method in brief: (§1)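 A WP or EC formulation diluted in water with 0.2% wetting agent was sprayed at 600 to 800 l/ha onto one-leaf-stage plants grown in sandy loam. About 3 weeks later, action was rated visually in percent, 100% being dead plants.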

Polygonum convolvulus = test: Pre-emergence herbicidal action against POLCO; conditions: 80 g/ha
Method in brief: (§2)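 Greenhouse pots of sandy loam held seeds covered with soil, onto which the compound was applied before emergence. An aqueous suspension or emulsion of WP or EC was used at 600 to 800 l/ha with 0.2% wetting agent. Percent damage was judged visually at 3 weeks.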

Amaranthus retroflexus [2] = test: Pre-emergence herbicidal action against AMARE; conditions: visual score after 3 weeks vs untreated controls
Method in brief: as §2

Setaria viridis [3] = test: Post-emergence herbicidal action against SETVI; conditions: for Post-emergence action against SETVI in %: visual assessment about 3 weeks after treatment
Method in brief: as §1

Abutilon theophrasti [4] = test: Post-emergence herbicidal action against ABUTH
Method in brief: as §1

Echinochloa crus-galli [5] = test: Pre-emergence herbicidal action against ECHCG; conditions: for Pre-emergence action against ECHCG: 80 g/ha, visual score after 3 weeks vs untreated controls; for Herbicidal action against ECHCG: comparative experiment, pre-emergence
Method in brief: as §2

Matricaria inodora [6] = test: Post-emergence herbicidal action against MATIN; conditions: for Post-emergence action against MATIN in %: visual assessment about 3 weeks after treatment
Method in brief: as §1

Matricaria inodora [7] = test: Pre-emergence herbicidal action against MATIN; conditions: visual score after 3 weeks vs untreated controls
Method in brief: as §2

Viola tricolor [8] = test: Post-emergence herbicidal action against VIOTR
Method in brief: as §1

Echinochloa crus-galli [9] = test: Post-emergence herbicidal action against ECHCG; conditions: visual assessment about 3 weeks after treatment
Method in brief: as §1

Digitaria sanguinalis [10] = test: Pre-emergence herbicidal action against DIGSA
Method in brief: as §2

Viola tricolor [11] = test: Pre-emergence herbicidal action against VIOTR
Method in brief: as §2

Pharbitis purpurea [12] = test: Post-emergence herbicidal action against PHBPU; conditions: for Post-emergence action against PHBPU in %: visual assessment about 3 weeks after treatment
Method in brief: as §1

Alopecurus myosuroides [13] = test: Post-emergence herbicidal action against ALOMY
Method in brief: as §1

Alopecurus myosuroides [14] = test: Pre-emergence herbicidal action against ALOMY; conditions: for Pre-emergence action against ALOMY: visual score after 3 weeks vs untreated controls; for Herbicidal action against ALOMY: comparative experiment, pre-emergence
Method in brief: as §2

Pharbitis purpurea [15] = test: Pre-emergence herbicidal action against PHBPU; conditions: 80 g/ha; visual score after 3 weeks vs untreated controls
From the text: Seeds of monocotyledonous and dicotyledonous weed plants and crop plants are laid out in sandy loam soil in wood-fiber pots and covered with soil. The compounds of the invention, formulated in the form of wettable powders (WP) or as emulsion concentrates (EC), are then applied to the surface of the covering soil in the form of an aqueous suspension or emulsion at a water application rate equivalent to 600 to 800 l/ha, with addition of 0.2% wetting agent. After the treatment, the pots are placed in a greenhouse and kept under good growth conditions for the trial plants. The damage to the test plants is scored visually after a test period of 3 weeks by comparison with untreated controls (herbicidal activity in percent (%): 100% activity=the plants have died, 0% activity=like control plants). […] The tables below illustrate, in an illustrative manner, the post-emergence herbicidal action of the compounds of the invention, the herbicidal activity being stated in percent.

Abutilon theophrasti [16] = test: Pre-emergence herbicidal action against ABUTH; conditions: for Pre-emergence action against ABUTH: visual score after 3 weeks vs untreated controls; for Herbicidal action against ABUTH: comparative experiment, pre-emergence
Method in brief: as §2

Veronica persica [17] = test: Post-emergence herbicidal action against VERPE; conditions: 20 g/ha, visual assessment about 3 weeks after treatment
Method in brief: as §1

Setaria viridis [18] = test: Pre-emergence herbicidal action against SETVI; conditions: for Herbicidal action against SETVI: comparative experiment
Method in brief: as §2

Veronica persica [19] = test: Pre-emergence herbicidal action against VERPE; conditions: 80 g/ha
Method in brief: as §2

Lolium rigidum = test: Pre-emergence herbicidal action against LOLRI; conditions: 80 g/ha
Method in brief: as §2

Digitaria sanguinalis [20] = test: Post-emergence herbicidal action against DIGSA
Method in brief: as §1

Avena fatua = test: Pre-emergence herbicidal action against AVEFA; conditions: for Pre-emergence action against AVEFA: visual score after 3 weeks vs untreated controls; for Herbicidal action against AVEFA: comparative experiment, pre-emergence
Method in brief: as §2

[21] = comparative experiment, 5 g a.i./ha

Which results are given for `CCN(C(=O)c1c(C(F)(F)F)ccc(C(=O)Nc2nnnn2C)c1Cl)C1CC1` [Example 1-136]?
Post-emergence action against AMARE in % (Amaranthus retroflexus [1]; 5 g/ha): 100%; Post-emergence action against AMARE in % (Amaranthus retroflexus [1]; 20 g/ha): 100%; Pre-emergence action against POLCO (Polygonum convolvulus): 80%; Pre-emergence action against AMARE (Amaranthus retroflexus [2]; 20 g/ha): 90%; Pre-emergence action against AMARE (Amaranthus retroflexus [2]; 80 g/ha): 100%; Post-emergence action against SETVI in % (Setaria viridis [3]; 20 g/ha): 100%; Post-emergence action against ABUTH (Abutilon theophrasti [4]; 5 g/ha): 90%; Post-emergence action against ABUTH (Abutilon theophrasti [4]; 20 g/ha): 100%; Pre-emergence action against ECHCG (Echinochloa crus-galli [5]): 90%; Post-emergence action against MATIN in % (Matricaria inodora [6]; 20 g/ha): 90%; Pre-emergence action against MATIN (Matricaria inodora [7]; 20 g/ha): 90%; Pre-emergence action against MATIN (Matricaria inodora [7]; 80 g/ha): 100%; Post-emergence action against VIOTR in % (Viola tricolor [8]; 5 g/ha): 100%; Post-emergence action against VIOTR in % (Viola tricolor [8]; 20 g/ha): 100%; Post-emergence action against ECHCG in % (Echinochloa crus-galli [9]; 20 g/ha): 90%; Pre-emergence action against DIGSA (Digitaria sanguinalis [10]; 20 g/ha): 90%; Pre-emergence action against DIGSA (Digitaria sanguinalis [10]; 80 g/ha): 100%; Pre-emergence action against VIOTR (Viola tricolor [11]; 20 g/ha): 100%; Pre-emergence action against VIOTR (Viola tricolor [11]; 80 g/ha): 100%; Post-emergence action against PHBPU in % (Pharbitis purpurea [12]; 20 g/ha): 80%; Post-emergence action against ALOMY (Alopecurus myosuroides [13]; 5 g/ha): 80%; Post-emergence action against ALOMY (Alopecurus myosuroides [13]; 20 g/ha): 90%; Pre-emergence action against ALOMY (Alopecurus myosuroides [14]; 80 g/ha): 100%; Pre-emergence action against PHBPU (Pharbitis purpurea [15]): 90%; Pre-emergence action against ABUTH (Abutilon theophrasti [16]; 20 g/ha): 90%; Pre-emergence action against ABUTH (Abutilon theophrasti [16]; 80 g/ha): 100%; Post-emergence action against VERPE in % (Veronica persica [17]): 80%; Pre-emergence action against SETVI (Setaria viridis [18]; 20 g/ha): 90%; Pre-emergence action against SETVI (Setaria viridis [18]; 80 g/ha): 100%

Which results are given for `CN(C)C(=O)c1c(C(F)F)ccc(C(=O)Nc2nnnn2C)c1Cl` [Example 1-154]?
Pre-emergence action against VERPE (Veronica persica [19]): 80%; Post-emergence action against AMARE in % (Amaranthus retroflexus [1]; 5 g/ha): 90%; Post-emergence action against AMARE in % (Amaranthus retroflexus [1]; 20 g/ha): 100%; Pre-emergence action against POLCO (Polygonum convolvulus): 80%; Pre-emergence action against LOLRI (Lolium rigidum): 90%; Pre-emergence action against AMARE (Amaranthus retroflexus [2]; 20 g/ha): 90%; Pre-emergence action against AMARE (Amaranthus retroflexus [2]; 80 g/ha): 100%; Post-emergence action against SETVI in % (Setaria viridis [3]; 5 g/ha): 100%; Post-emergence action against SETVI in % (Setaria viridis [3]; 20 g/ha): 100%; Herbicidal action against SETVI (Setaria viridis [3]; [21]): 100; Post-emergence action against ABUTH (Abutilon theophrasti [4]; 5 g/ha): 100%; Post-emergence action against ABUTH (Abutilon theophrasti [4]; 20 g/ha): 100%; Herbicidal action against ABUTH (Abutilon theophrasti [4]; [21]): 100; Post-emergence action against DIGSA in % (Digitaria sanguinalis [20]; 5 g/ha): 90%; Post-emergence action against DIGSA in % (Digitaria sanguinalis [20]; 20 g/ha): 90%; Pre-emergence action against ECHCG (Echinochloa crus-galli [5]): 100%; Herbicidal action against ECHCG (Echinochloa crus-galli [5]; 20 g a.i./ha): 80; Herbicidal action against ECHCG (Echinochloa crus-galli [5]; 80 g a.i./ha): 100; Post-emergence action against MATIN in % (Matricaria inodora [6]; 5 g/ha): 80%; Post-emergence action against MATIN in % (Matricaria inodora [6]; 20 g/ha): 90%; Herbicidal action against MATIN (Matricaria inodora [6]; [21]): 80; Pre-emergence action against MATIN (Matricaria inodora [7]; 20 g/ha): 80%; Pre-emergence action against MATIN (Matricaria inodora [7]; 80 g/ha): 90%; Post-emergence action against VIOTR in % (Viola tricolor [8]; 5 g/ha): 100%; Post-emergence action against VIOTR in % (Viola tricolor [8]; 20 g/ha): 100%; Herbicidal action against VIOTR (Viola tricolor [8]; [21]): 100; Post-emergence action against ECHCG in % (Echinochloa crus-galli [9]; 5 g/ha): 90%; Post-emergence action against ECHCG in % (Echinochloa crus-galli [9]; 20 g/ha): 90%; Pre-emergence action against DIGSA (Digitaria sanguinalis [10]; 20 g/ha): 100%; Pre-emergence action against DIGSA (Digitaria sanguinalis [10]; 80 g/ha): 100%; Pre-emergence action against VIOTR (Viola tricolor [11]; 80 g/ha): 100%; Herbicidal action against VIOTR (Viola tricolor [11]; comparative experiment, 80 g a.i./ha): 100; Pre-emergence action against AVEFA (Avena fatua; 20 g/ha): 80%; Pre-emergence action against AVEFA (Avena fatua; 80 g/ha): 100%; Herbicidal action against AVEFA (Avena fatua; 20 g a.i./ha): 50; Herbicidal action against AVEFA (Avena fatua; 80 g a.i./ha): 100; Post-emergence action against PHBPU in % (Pharbitis purpurea [12]; 5 g/ha): 80%; Post-emergence action against PHBPU in % (Pharbitis purpurea [12]; 20 g/ha): 90%; Herbicidal action against PHBPU (Pharbitis purpurea [12]; [21]): 80; Post-emergence action against ALOMY (Alopecurus myosuroides [13]; 5 g/ha): 90%; Post-emergence action against ALOMY (Alopecurus myosuroides [13]; 20 g/ha): 100%; Herbicidal action against ALOMY (Alopecurus myosuroides [13]; [21]): 90; Pre-emergence action against ALOMY (Alopecurus myosuroides [14]; 20 g/ha): 90%; Pre-emergence action against ALOMY (Alopecurus myosuroides [14]; 80 g/ha): 100%; Herbicidal action against ALOMY (Alopecurus myosuroides [14]; 20 g a.i./ha): 70; Herbicidal action against ALOMY (Alopecurus myosuroides [14]; 80 g a.i./ha): 100; Pre-emergence action against ABUTH (Abutilon theophrasti [16]; 80 g/ha): 100%; Herbicidal action against ABUTH (Abutilon theophrasti [16]; 20 g a.i./ha): 100; Herbicidal action against ABUTH (Abutilon theophrasti [16]; 80 g a.i./ha): 100; Pre-emergence action against SETVI (Setaria viridis [18]; 80 g/ha): 100%; Herbicidal action against SETVI (Setaria viridis [18]; 20 g a.i./ha): 90; Herbicidal action against SETVI (Setaria viridis [18]; 80 g a.i./ha): 100
